Assays:
Type in all cases: in vivo
[1] = tested on: Pythium disease; assay: Seed treatment, emergence of corn seedlings in Pythium-infested soil (tray test); settings: 14 days 10° C. then 11 days 18° C.; for Ratio of sound non-transgenic seeds: non-transgenic corn seeds; for Ratio of sound transgenic seeds: transgenic corn seeds (glyphosate tolerance, rootworm resistance)
Experimental: Ethaboxam, formulated in a flowable concentrate for seed treatment use, was added to water so that the total slurry applied to a specified amount of seed would deliver a designated concentration of ethaboxam per 100 KG seed. The prepared slurry was applied to non-transgenic corn seeds and to transgenic corn seeds having both glyphosate tolerance and rootworm resistance. In a tray, Kimpack (absorbent cellulose wadding, trademark of Kimberly-Clark) was placed and wetted. Each of the corn seed types of each treatment rate was placed on the Kimpack and covered with soil, which is a 1:1 mixture of Pythium-infested field soil and sand. After keeping the soil saturated for 14 days at 10° C., the trays were transferred to 18° C. for 11 days.

[2] = tested on: Pythium spp.; assay: Seed treatment, emergence of corn under field conditions; settings: for Ratio of sound non-transgenic seeds: non-transgenic corn seeds; for Ratio of sound transgenic seeds: transgenic corn seeds (glyphosate tolerance, rootworm resistance)
Experimental: (§1) Ethaboxam, formulated in a flowable concentrate for seed treatment use, was added to water so that the total slurry applied to a specified amount of seed would deliver a designated concentration. The prepared slurry was applied to non-transgenic corn seeds and transgenic corn seeds having both glyphosate tolerance and rootworm resistance. […] Emergence (%) was determined at 7 and 14 DAP and recorded in Table 2.

[3] = tested on: Pythium ultimum; assay: Seed treatment, emergence of cotton under field conditions; settings: for Ratio of sound non-transgenic seeds: non-transgenic cotton seeds; for Ratio of sound transgenic seeds: transgenic cotton seeds (Bacillus thuringiensis endotoxins, glyphosate tolerant)
Experimental: as §1
The same procedure as Test example 2 was conducted, except that cotton seeds which express Bacillus thuringiensis endotoxins and tolerant against glyphosate, were used in place of corn seeds. Disease incited by Pythium ultimum is reduced of the […]. The transgenic cotton source provided higher field stand establishment of seedlings when compared to the non-transgenic cotton. (Table 3).

Compound: CCNc1nc(CC)c(C(=O)NC(C#N)c2cccs2)s1 (centres unmarked) [ethaboxam, N-(cyano-2-thienylmethyl)-4-ethyl-2-(ethylamino)-5-thiazolecarboxamide]
- Ratio of sound non-transgenic seeds ([1]; ethaboxam 0.05 gai/100 kg seed): 39%
- Ratio of sound non-transgenic seeds ([1]; ethaboxam 0.1 gai/100 kg seed): 41%
- Ratio of sound non-transgenic seeds ([1]; ethaboxam 0.5 gai/100 kg seed): 47%
- Ratio of sound non-transgenic seeds ([1]; ethaboxam 1.0 gai/100 kg seed): 59%
- Ratio of sound transgenic seeds ([1]; ethaboxam 0.05 gai/100 kg seed): 57%
- Ratio of sound transgenic seeds ([1]; ethaboxam 0.1 gai/100 kg seed): 59%
- Ratio of sound transgenic seeds ([1]; ethaboxam 0.5 gai/100 kg seed): 65%
- Ratio of sound transgenic seeds ([1]; ethaboxam 1.0 gai/100 kg seed): 67%
- Ratio of sound non-transgenic seeds ([2]; ethaboxam 0.05 gai/100 kg seed): 74.5%
- Ratio of sound non-transgenic seeds ([2]; ethaboxam 0.1 gai/100 kg seed): 78.25%
- Ratio of sound non-transgenic seeds ([2]; ethaboxam 0.5 gai/100 kg seed): 76.25%
- Ratio of sound non-transgenic seeds ([2]; ethaboxam 1.0 gai/100 kg seed): 77.75%
- Ratio of sound non-transgenic seeds ([2]; ethaboxam 5 gai/100 kg seed): 81%
- Ratio of sound non-transgenic seeds ([2]; ethaboxam 10 gai/100 kg seed): 76.25%
- Ratio of sound transgenic seeds ([2]; ethaboxam 0.05 gai/100 kg seed): 86.25%
- Ratio of sound transgenic seeds ([2]; ethaboxam 0.1 gai/100 kg seed): 85%
- Ratio of sound transgenic seeds ([2]; ethaboxam 0.5 gai/100 kg seed): 89.25%
- Ratio of sound transgenic seeds ([2]; ethaboxam 1.0 gai/100 kg seed): 87.75%
- Ratio of sound transgenic seeds ([2]; ethaboxam 5 gai/100 kg seed): 86%
- Ratio of sound transgenic seeds ([2]; ethaboxam 10 gai/100 kg seed): 88.5%
- Ratio of sound non-transgenic seeds ([3]; ethaboxam 0.05 gai/100 kg seed): 1.75%
- Ratio of sound non-transgenic seeds ([3]; ethaboxam 0.1 gai/100 kg seed): 6.25%
- Ratio of sound non-transgenic seeds ([3]; ethaboxam 0.5 gai/100 kg seed): 10.25%
- Ratio of sound non-transgenic seeds ([3]; ethaboxam 1.0 gai/100 kg seed): 7%
- Ratio of sound non-transgenic seeds ([3]; ethaboxam 5 gai/100 kg seed): 9.5%
- Ratio of sound non-transgenic seeds ([3]; ethaboxam 10 gai/100 kg seed): 6.5%
- Ratio of sound transgenic seeds ([3]; ethaboxam 0.05 gai/100 kg seed): 7.5%
- Ratio of sound transgenic seeds ([3]; ethaboxam 0.1 gai/100 kg seed): 6.25%
- Ratio of sound transgenic seeds ([3]; ethaboxam 0.5 gai/100 kg seed): 6%
- Ratio of sound transgenic seeds ([3]; ethaboxam 1.0 gai/100 kg seed): 14.25%
- Ratio of sound transgenic seeds ([3]; ethaboxam 5 gai/100 kg seed): 8.5%
- Ratio of sound transgenic seeds ([3]; ethaboxam 10 gai/100 kg seed): 17.75%

Reference: US9961898B2, “Method for controlling plant disease” (SUMITOMO CHEMICAL COMPANY, LIMITED, priority 2008, dated 2018)
